Literature values in US20200206223A1, “LIQUID DOSAGE FORMS OF IMATINIB” (FTF PHARMA PRIVATE LIMITED, priority 2017, published 2020).

Question: With `Cc1ccc(NC(=O)c2ccc(CN3CCNCC3)cc2)cc1Nc1nccc(-c2cccnc2)n1` [N-desmethyl derivative] as the compound, how does the “Share of the AUC for Imatinib mesylate” value (main circulating active metabolite) read?
Answer: about 15%

Question: And the Elimination half-life (orally administered imatinib mesylate)?
Answer: ~40 h
